Measured values reported in US10774064B2 (Cadent Therapeutics, Inc., priority 2016, dated 2020).

The compounds below were run against T1, small-conductance Ca2+-activated K+ channels (SK channels, subtype 2) (Homo sapiens, UniProt Q9H2S1) (assay: whole-cell patch-clamp of ionic current through SK2 channels in HEK293 cells (SC100)). Conditions: concentration that increases the basal current by 100%; HEK293 cells expressing SK2 channels.
T1 construct: expressed in transfected cells; host or cells: HEK293
Format: cell-based
Experimental: The biological activity was determined as follows. The ionic current through small-conductance Ca^2+-activated K^+ channels (SK channels, subtype 2) was measured using the whole-cell configuration of the patch-clamp technique in a patch-clamp set-up using HEK293 tissue culture cells expressing SK2 channels as described in Hougaard et al., British Journal of Pharmacology 151, 655-665, May 8, 2007, the entire teachings of which are incorporated herein by reference. In one aspect, a compound is defined to be an SK PAM if the compound increases current in this assay, for example, if the SC100 value of the compound is less than or equal to 10 μM as determined by this assay. The SC100 value is defined to be the concentration of compound that increases the basal current by 100%.

SMILES | SC100
Cc1cc(C)n(-c2nc(NC3CCC(F)(F)CC3)cc(C(C)(C)O)n2)n1 [Compound 152, 2-(6-((4,4-difluorocyclohexyl)amino)-2-(3,5-dimethyl-1H-pyrazol-1-yl)pyrimidin-4-yl)propan-2-ol] | + (+ means >1 uM)
Cc1cc(C)n(-c2cccc(NC3CCC(F)(F)CC3)n2)n1 [Compound 154, N-(4,4-difluorocyclohexyl)-6-(3,5-dimethyl-1H-pyrazol-1-yl)pyridin-2-amine] | + (+ means >1 uM)
Cc1ccn(-c2nc(NC3CCC(F)(F)CC3)cc(NC3CC(C)(C)C3)n2)n1 [Compound 156, N4-(4,4-difluorocyclohexyl)-N6-(3,3-dimethylcyclobutyl)-2-(3-methyl-1H-pyrazol-1-yl)pyrimidine-4,6-diamine] | ++ (++ means 200 nM-1000 nM)
Cc1ccn(-c2nc(NCC3(N(C)C)CCC3)cc(NC3CCC(F)(F)CC3)n2)n1 [Compound 157, N4-(4,4-difluorocyclohexyl)-N6-((1-(dimethylamino)cyclobutyl)methyl)-2-(3-methyl-1H-pyrazol-1-yl)pyrimidine-4,6-diamine] | ++ (++ means 200 nM-1000 nM)
CCN1CCCCC(Nc2cc(NC3CCC(F)(F)CC3)nc(-n3ccc(C)n3)n2)C1 (centres unmarked) [Compound 158, N4-(4,4-difluorocyclohexyl)-N6-(1-ethylazepan-3-yl)-2-(3-methyl-1H-pyrazol-1-yl)pyrimidine-4,6-diamine] | ++ (++ means 200 nM-1000 nM)
CCN(c1nc(C)cc(-n2nc(C)cc2C)n1)C1CCC(F)(F)CC1 [Compound 160, N-(4,4-difluorocyclohexyl)-4-(3,5-dimethyl-1H-pyrazol-1-yl)-N-ethyl-6-methylpyrimidin-2-amine] | + (+ means >1 uM)
CCN(c1cc(C)nc(-n2nc(C)cc2C)n1)C1CCC(F)(F)CC1 [Compound 161, N-(4,4-difluorocyclohexyl)-2-(3,5-dimethyl-1H-pyrazol-1-yl)-N-ethyl-6-methylpyrimidin-4-amine] | + (+ means >1 uM)

Continued, values first:

SC100 | SMILES
++ (++ means 200 nM-1000 nM) | CC(=O)N1CCN(c2cc(NC3CCC(C(F)(F)F)CC3)nc(-n3nc(C)cc3C)n2)CC1 (centres unmarked) [Compound 149, 1-(4-(2-(3,5-dimethyl-1H-pyrazol-1-yl)-6-((4-(trifluoromethyl)cyclohexyl)amino)pyrimidin-4-yl)piperazin-1-yl)ethan-1-one]
+ (+ means >1 uM) | Cc1cc(NC2CCC(F)(F)C2)nc(-n2ccc(C)n2)n1 (centres unmarked) [Compound 150, N-(3,3-difluorocyclopentyl)-6-methyl-2-(3-methyl-1H-pyrazol-1-yl)pyrimidin-4-amine]
++ (++ means 200 nM-1000 nM) | Cc1ccn(-c2nc(NC3CCC(F)(F)CC3)cc(OC3CN(C(=O)OC(C)(C)C)C3)n2)n1 [Compound 151, tert-butyl 3-((6-((4,4-difluorocyclohexyl)amino)-2-(3-methyl-1H-pyrazol-1-yl)pyrimidin-4-yl)oxy)azetidine-1-carboxylate]
+ (+ means >1 uM) | Cc1ccn(-c2cc(S(C)(=O)=O)cc(NC3CCC(F)(F)CC3)n2)n1 [Compound 153, N-(4,4-difluorocyclohexyl)-6-(3-methyl-1H-pyrazol-1-yl)-4-(methylsulfonyl)pyridin-2-amine]
+ (+ means >1 uM) | Cc1ccn(-c2nc(NC3CCC(F)(F)CC3)cc(N3CC4C(N)C4C3)n2)n1 (centres unmarked) [Compound 155, 3-(6-((4,4-difluorocyclohexyl)amino)-2-(3-methyl-1H-pyrazol-1-yl)pyrimidin-4-yl)-3-azabicyclo[3.1.0] hexan-6-amine]
++ (++ means 200 nM-1000 nM) | Cc1cc(NC2CCC(F)(F)CC2)nc(-n2nc(C)cc2C)c1 [Compound 159, N-(4,4-difluorocyclohexyl)-6-(3,5-dimethyl-1H-pyrazol-1-yl)-4-methylpyridin-2-amine]
++ (++ means 200 nM-1000 nM) | Cc1cc(C)n(-c2nc(NC3CCC(F)(F)CC3)cc(C(F)(F)F)n2)n1 [Compound 162, N-(4,4-difluorocyclohexyl)-2-(3,5-dimethyl-1H-pyrazol-1-yl)-6-(trifluoromethyl)pyrimidin-4-amine]
